Assay results taken from patent US12715851B2, “4′-substituted analogues of fisetin and their use in the treatment of cancer” (Stellenbosch University, priority 2020, dated 2026).
Entries after “also recorded” stand apart in the source; their conditions may differ.

Assays:
[1] = system: H1299 lung cancer cells; assay: Trypan blue cell exclusion assay, cell proliferation and death; assay type: cell-based; settings: Homo sapiens, NCI-H1299, H1299, 48 h, read-out: IC50 concentration
Description: (§1) To evaluate the effect of Fisetin analogues 3a, 3c and 3e on cell proliferation and death of human lung cancer cells, trypan blue cell exclusion assays were performed. A549 and H1299 cancer cells were treated with different concentrations of three selected Fisetin analogues for 48 h. The Fisetin analogues decreased the viability of cells and caused cell death in both the cell lines in a concentration dependent fashion. A549 and H1299 cells were treated with 5, 10 and 20 μM of Fisetin analogues for 48 h. All three analogues decreased cell proliferation and induced cell death.

[2] = system: A549 cells; assay: as above; assay type: cell-based; settings: Homo sapiens, A549, 48 h, read-out: IC50 concentration
Description: as §1

[3] = system: A549; assay: Cell cycle distribution, propidium iodide flow cytometry; assay type: cell-based, human; settings: 10 & 20 μM, 48 h
Description: (§2) To examine the effect of Fisetin analogues on cell cycle regulation, cells were treated with different concentrations of Fisetin analogues (5, 10 & 20 μM) for 48 h, then stained with propidium iodide and subjected to flow cytometry. All three of the tested Fisetin analogues induced G2/M phase cell cycle arrest in A549 (FIGS. 5A-5C) and H1299 human lung cancer cells (FIGS. 5D-5F).

[4] = system: A549 cells; assay: Western blot of signalling, cell cycle and apoptosis markers; assay type: cell-based, human; settings: IC50 concentration and 20 μM
Excerpt: (§3) Similarly, in H1299 cells analogue 3a induced a 11.7 to 14.9% cell death (FIG. 4D right) compared to 3.8% in control cells. Analogue 3c (FIG. 4E right) and analogue 3e (FIG. 4F right) induced cell death of 8.2 to 15.1% and 8.8 to 16.6% respectively. For western blot experiments, two concentrations were used, i.e. the IC50 concentration and the next higher concentration utilized for cell proliferation for each cell line.
The expression of pro-oncogenic signalling molecules, which are involved in proliferation and survival of cancer cells, were evaluated.
The effect of the Fisetin analogues on molecular markers of apoptosis was assessed.

[5] = system: A549; assay: Apoptosis assay; assay type: cell-based, human; settings: 48 h, control cells 4.7%
Excerpt: (§4) In A549, analogue 3a induced 8.2 and 11.2% apoptosis, analogue 3c induced 13.4 and 17.2% apoptosis, and analogue 3e induced 10.6 to 19.5% apoptosis compared to 4.7% in control cells (FIG. 6A).

[6] = system: H1299 cancer cells; assay: Apoptosis assay; assay type: cell-based, human; settings: 48 h
Excerpt: [Worded in the source for another cell line; used here, by the source, with some conditions changed.] as §4

[7] = system: H1299 human lung cancer cells; assay: Cell cycle distribution, propidium iodide flow cytometry; assay type: cell-based; settings: 48 h; for G2/M phase arrest: H1299
Description: as §2

[8] = system: H1299 cells; assay: Western blot of signalling, cell cycle and apoptosis markers; assay type: cell-based, human
Excerpt: as §3
In H1299 cells (FIG. 4H), the higher concentrations of all three Fisetin analogues decreased the expression of pErk1/2. […]
The decreased expression of these proteins explains the decreased cell proliferation in both A549 and H1299 cells. […] Consistent with A549 data, all three the Fisetin analogues decreased the expression of anti-apoptotic protein Bcl-2 at both the concentrations. In H1299 cells, all the analogues increased cleaved Caspase-3 compared to control untreated cells. Thus, modulation of apoptosis regulatory proteins has caused apoptosis in both A549 and H1299 cells by the tested Fisetin analogues.

[9] = system: A549 lung cancer cell line; assay: MTT cell proliferation assay, cytotoxicity after 48 h treatment; assay type: cell-based, human; settings: for variation in cytotoxicity with A-ring substitution: A549, 4′-Br analogues; for activity against lung cancer cell lines compared with the parent Fisetin: A549 and/or H1299
Description: These 4′-substituted Fisetin analogues were initially screened for cytotoxicity against the A549 lung cancer cell line following a 48 h treatment period. Cytotoxicity IC50's were quantified using the MTT cell proliferation assay. The compounds were not found to interfere with the assay by causing an increase in background absorbance, no correlation was found between the lipophilicity and cytotoxicity at this position, and the substituent size was also not found to be important.

[10] = system: H1299 lung cancer cells; assay: Cytotoxicity / cell viability of H1299 cells; assay type: cell-based, human; settings: 4′-Br analogues
Excerpt: Analogues were also synthesised to all contain Br in the B-ring 4′-position, and in which the A-ring substitution pattern alone was varied. […] Based on the strong activity of analogue 3c, it was selected together with analogues 3a and 3e for further mechanistic evaluation in lung cancer cells.

[11] = cited from earlier work

SMILES: O=c1c(O)c(-c2ccc(Br)cc2)oc2ccccc12 [analogue 3a, 4′-Bromo-3-hydroxyflavone]
- IC50 [1]: 4.5 µM
- IC50 [2]: 11.9 µM
- G2/M phase arrest [3]: induced G2/M phase arrest in both the cell lines significantly
- cleaved caspase-3 [4]: increased the cleavage of caspase-3 significantly
- expression of p21 [4]: increased the expression of p21 marginally at both the concentrations
- expression of phospho Cdc-2 [4]: slightly decreased the phospho form of Cdc-2 at higher concentration
- expression of phospho-Erk1/2 [4]: decreased the expression of phospho-Erk1/2 significantly at both the concentrations
- expression of pro-apoptotic protein Bax [4]: slightly increased the expression of pro-apoptotic protein Bax
- total Stat-3 expression [4]: not affected
- total form of Akt [4]: slightly downregulated
- total form of Erk1/2 [4]: not affected
- apoptosis ([5]; IC50 concentration): 8.2%
- apoptosis ([5]; higher concentration 20 μM): 11.2%
- apoptosis ([6]; IC50 concentration): 13.2%
- apoptosis ([6]; higher concentration 10 μM): 17.8%
- G2/M phase arrest ([7]; 10 & 20 μM): induced G2/M phase arrest in both the cell lines significantly
- Phospho-Cdc-2 expression ([8]; IC50 concentration and 10 μM): marginally decreased
- Total Cdc-2 ([8]; IC50 concentration and 10 μM): marginally affected by higher concentration
- expression of Bax ([8]; IC50 concentration and 10 μM): slightly higher
- expression of phospho Akt ([8]; IC50 concentration and 10 μM): did not affect the expression of phospho and total Akt at both the concentrations
- expression of phospho-EGFR ([8]; IC50 concentration and 10 μM): lower concentration of analogue 3a did not affect the expression of both phospho and total EGFR; also recorded: higher concentration of analogue 3a significantly decreased the expression of both phospho and total EGFR
- expression of total Akt ([8]; IC50 concentration and 10 μM): did not affect the expression of phospho and total Akt at both the concentrations
- expression of total EGFR ([8]; IC50 concentration and 10 μM): lower concentration of analogue 3a did not affect the expression of both phospho and total EGFR; also recorded: higher concentration of analogue 3a significantly decreased the expression of both phospho and total EGFR

SMILES: COCOc1ccc2c(=O)c(O)c(-c3ccc(Br)cc3)oc2c1 [analogue 3b, 4′-Bromo-3-hydroxy-7-methoxymethoxyflavone]
- variation in cytotoxicity with A-ring substitution [9]: little variation in cytotoxicity
- variation in cytotoxicity with A-ring substitution [10]: little variation in cytotoxicity

SMILES: COCOc1ccc2oc(-c3ccc(Br)cc3)c(O)c(=O)c2c1 [analogue 3d, 4′-Bromo-3-hydroxy-6-methoxymethoxyflavone]
- variation in cytotoxicity with A-ring substitution [9]: little variation in cytotoxicity
- variation in cytotoxicity with A-ring substitution [10]: little variation in cytotoxicity

SMILES: O=c1c(O)c(-c2ccc(Br)cc2)oc2ccc(O)cc12 [analogue 3e, 4′-Bromo-3,6-dihydroxyflavone]
- IC50 [1]: 3.1 µM
- IC50 [2]: 12.3 µM
- variation in cytotoxicity with A-ring substitution [9]: little variation in cytotoxicity
- G2/M phase arrest [3]: induced G2/M phase arrest in both the cell lines significantly
- cleaved caspase-3 [4]: both the concentrations of analogue 3e increased the cleaved caspase-3 marginally
- expression of p21 [4]: increased the p21 expression to a much higher level at both the concentrations
- expression of phospho Cdc-2 [4]: IC50 concentration decreased the expression to some extent; also recorded: the higher concentrations decreased the phospho-Cdc-2 expression significantly
- expression of phospho-Erk1/2 [4]: decreased the expression of phospho-Erk1/2 significantly at both the concentrations
- expression of phospho-Stat-3 [4]: completely abolished the expression of p-Stat-3
- expression of pro-apoptotic protein Bax [4]: increased the expression of Bax with much higher potential
- total Stat-3 expression [4]: significantly decreased the expression of total Stat-3
- total form of Akt [4]: decreased the expression of total Akt at both the concentrations
- total form of Erk1/2 [4]: not affected
- apoptosis ([5]; IC50 concentration): 10.6%
- apoptosis ([5]; higher concentration 20 μM): 19.5%
- apoptosis ([6]; IC50 concentration): 12.1%
- apoptosis ([6]; higher concentration 10 μM): 19.5%
- variation in cytotoxicity with A-ring substitution [10]: little variation in cytotoxicity
- S-phase arrest ([7]; 20 μM, cell line not given): induced S-phase arrest
- G2/M phase arrest ([7]; 5 μM): induced G2/M phase arrest
- G2/M phase arrest ([7]; 10 & 20 μM): induced G2/M phase arrest in both the cell lines significantly
- Phospho-Cdc-2 expression ([8]; IC50 concentration and 10 μM): both concentrations of analogue 3e decreased the expression of phospho-Cdc-2
- Total Cdc-2 ([8]; IC50 concentration and 10 μM): no effect
- expression of Bax ([8]; IC50 concentration and 10 μM): increased the expression of pro-apoptotic protein Bax
- expression of phospho Akt ([8]; IC50 concentration and 10 μM): significantly decrease the phospho Akt
- expression of phospho-EGFR ([8]; IC50 concentration and 10 μM): significantly decreased the expression of phospho-EGFR
- expression of total Akt ([8]; IC50 concentration and 10 μM): did not affect the total Akt
- expression of total EGFR ([8]; IC50 concentration and 10 μM): did not affect the expression levels of total EGFR
- expression of total Erk1/2 ([8]; IC50 concentration and 10 μM): decreased the expression of total Erk1/2 significantly
- expression of total Stat-3 ([8]; higher concentration (10 μM)): decreased the expression of total Stat-3 at higher concentrations

SMILES: O=c1c(O)c(-c2ccc(Br)cc2)oc2cccc(O)c12 [analogue 3f, 4′-Bromo-3,5-dihydroxyflavone]
- variation in cytotoxicity with A-ring substitution [9]: little variation in cytotoxicity
- variation in cytotoxicity with A-ring substitution [10]: little variation in cytotoxicity

SMILES: O=c1c(O)c(-c2ccc(Cl)cc2)oc2cc(O)ccc12 [analogue 3g, 4′-Chloro-3,7-dihydroxyflavone]
- cytotoxicity, in words ([9]; A549, MTT, 48 h): particularly active
- activity against lung cancer cell lines compared with the parent Fisetin [9]: substantially more active

SMILES: COc1ccc(-c2oc3cc(O)ccc3c(=O)c2O)cc1 [analogue 3m, 4′-Methoxy-3,7-dihydroxyflavone]
- activity compared to that predicted by the para-Hammett constant ([9]; A549, MTT, 48 h): enhanced activity compared to that predicted by the para-Hammett constant

SMILES: O=c1c(O)c(-c2ccc(C(F)(F)F)cc2)oc2cc(O)ccc12 [analogue 3n, 4′-Trifluoromethyl-3,7-dihydroxyflavone]
- cytotoxicity, in words ([9]; A549, MTT, 48 h): particularly active
- activity against lung cancer cell lines compared with the parent Fisetin [9]: substantially more active

SMILES: CS(=O)(=O)c1ccc(-c2oc3cc(O)ccc3c(=O)c2O)cc1 [analogue 3p, 4′-Methylsulfone-3,7-dihydroxyflavone]
- cytotoxicity, in words ([9]; A549, MTT, 48 h): particularly active
- activity against lung cancer cell lines compared with the parent Fisetin [9]: substantially more active

SMILES: O=c1c(O)c(-c2ccc(O)c(O)c2)oc2cc(O)cc(O)c12 [quercetin]
- pKa of the 4′-hydroxyl group [11]: ~ 9.4
- pKa of the 7-hydroxyl group ([11]; most acidic position): ~ 7.3
